The source of these data is US20010039287A1, “AROMATIC SULFONE HYDROXAMIC ACID METALLOPROTEASE INHIBITOR” (priority 1997, published 2001).

In general, IC50 refers to the concentration at which inhibition is half-maximal.

In one data set the target is T1, recombinant human MMP-1 (Homo sapiens, UniProt P03956).
T1 construct: made in house; host or cells: transfected HT-1080 cells (provided by Dr. Harold Welgus, Washington University)
T1 sequence (P03956 100-469): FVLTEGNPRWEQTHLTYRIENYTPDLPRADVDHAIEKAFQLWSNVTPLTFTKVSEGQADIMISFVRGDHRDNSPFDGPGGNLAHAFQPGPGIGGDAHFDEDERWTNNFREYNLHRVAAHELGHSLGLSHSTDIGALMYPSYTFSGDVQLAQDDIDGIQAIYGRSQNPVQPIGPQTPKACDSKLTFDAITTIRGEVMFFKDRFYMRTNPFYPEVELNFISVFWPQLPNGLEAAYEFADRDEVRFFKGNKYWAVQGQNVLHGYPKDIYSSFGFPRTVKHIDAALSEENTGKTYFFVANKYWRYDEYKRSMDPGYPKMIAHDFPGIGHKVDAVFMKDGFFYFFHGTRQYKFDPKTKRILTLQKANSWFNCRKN
The data set is described as follows: biochemical. Conditions: read-out: MMP-1 IC50.

A further data set has as its target T2, recombinant human MMP-2 (Homo sapiens, UniProt P08253).
T2 sequence (P08253 110-660): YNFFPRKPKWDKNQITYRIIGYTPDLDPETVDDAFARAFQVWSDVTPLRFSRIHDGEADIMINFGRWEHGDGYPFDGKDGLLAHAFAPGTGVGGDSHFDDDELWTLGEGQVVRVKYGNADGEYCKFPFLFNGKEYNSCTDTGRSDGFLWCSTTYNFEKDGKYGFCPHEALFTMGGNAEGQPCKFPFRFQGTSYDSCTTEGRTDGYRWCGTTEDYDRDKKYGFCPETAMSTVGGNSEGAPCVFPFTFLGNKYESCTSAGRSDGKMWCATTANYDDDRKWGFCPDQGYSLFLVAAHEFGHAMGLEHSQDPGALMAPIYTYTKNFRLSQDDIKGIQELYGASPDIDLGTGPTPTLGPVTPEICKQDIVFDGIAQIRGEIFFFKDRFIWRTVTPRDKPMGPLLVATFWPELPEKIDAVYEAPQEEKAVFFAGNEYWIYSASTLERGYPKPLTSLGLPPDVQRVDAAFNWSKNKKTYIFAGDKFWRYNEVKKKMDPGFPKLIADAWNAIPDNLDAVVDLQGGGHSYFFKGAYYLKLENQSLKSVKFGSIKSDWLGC
The data set is described as follows: biochemical.

The test system of the next data set is TNFα. Kind of data set: Tumor necrosis factor assay: TNFα ELISA on PMA-stimulated U-937 cell supernatant. Conditions: Homo sapiens, U-937, read-out: TNFα Release IC50 in micromolar. In general terms: ELISA stands for enzyme-linked immunosorbent assay.
The target of another data set is recombinant human MMP-9 (Homo sapiens, UniProt P14780). Kind of data set: biochemical. Conditions: read-out: MMP-9 IC50.
Another data set deals with recombinant human MMP-13 (Homo sapiens, UniProt P45452). Kind of data set: biochemical.
Details of data set [1]: AUC (0-∞): unit not given beside the values. The settings on record: for t½ Hour: Rat Intravenous 20 mpk.
[2] abbreviates: Inhibition Table A, read-out: MMP-2 IC50.
Where [3] appears, read: Inhibition Table A, read-out: MMP-13 IC50.
The mark [4] stands for this setting: Inhibition Table B, read-out: MMP-2 IC50.
The mark [5] stands for this setting: Inhibition Table B, read-out: MMP-13 IC50.

Structures can show the parent of a compound that is named as a salt. Where two headings read alike, the source gives them in different places.

recombinant human MMP-9, sequence (P14780 107-707 limits assumed): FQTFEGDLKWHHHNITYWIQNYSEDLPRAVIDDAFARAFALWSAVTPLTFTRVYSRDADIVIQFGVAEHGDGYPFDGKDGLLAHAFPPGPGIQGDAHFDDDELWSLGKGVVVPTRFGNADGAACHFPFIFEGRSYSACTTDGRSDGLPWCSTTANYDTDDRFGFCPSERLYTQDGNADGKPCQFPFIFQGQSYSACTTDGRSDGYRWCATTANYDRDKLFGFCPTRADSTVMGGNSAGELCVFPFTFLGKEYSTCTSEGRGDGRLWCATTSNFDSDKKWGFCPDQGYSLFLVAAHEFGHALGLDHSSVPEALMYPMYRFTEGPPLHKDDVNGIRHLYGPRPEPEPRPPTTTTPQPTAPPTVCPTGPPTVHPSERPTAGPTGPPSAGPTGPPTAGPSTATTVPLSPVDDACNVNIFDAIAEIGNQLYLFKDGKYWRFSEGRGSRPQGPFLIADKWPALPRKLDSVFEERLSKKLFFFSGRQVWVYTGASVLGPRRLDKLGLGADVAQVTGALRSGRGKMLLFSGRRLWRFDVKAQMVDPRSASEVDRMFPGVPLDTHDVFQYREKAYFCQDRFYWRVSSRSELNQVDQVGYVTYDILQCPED

As to `O=C(NO)C1(S(=O)(=O)c2ccc(Oc3ccccc3)cc2)CCNCC1` [Example 4], the IC50 was 1090 nM at recombinant human MMP-1 (Inhibition Table A); 0.23 nM at recombinant human MMP-2 (setting [2]); over 50 µM in the data set on TNFα; 5 nM on recombinant human MMP-9 (Inhibition Table A); 0.35 nM at recombinant human MMP-13 (setting [3]).
For `C#CCN1CCC(C(=O)NO)(S(=O)(=O)c2ccc(Oc3ccccc3)cc2)CC1` [Example 6], the IC50 at recombinant human MMP-1 (Inhibition Table A) is 327 nM; on recombinant human MMP-2 (setting [2]) it was 0.15 nM; in the data set on TNFα, over 50 µM; at recombinant human MMP-13 (setting [3]), 0.25 nM.
`C#CCN1CCC(C(=O)NO)(S(=O)(=O)c2ccc(Sc3ccccc3)cc2)CC1` [Example 9]: the IC50 at recombinant human MMP-1 (Inhibition Table A) is 9000 nM; at recombinant human MMP-2 (setting [2]), 0.2 nM; in the data set on TNFα it was over 50 µM.
`C#CCN1CCC(C(=O)NO)(S(=O)(=O)c2ccc(Oc3ccc4c(c3)OCO4)cc2)CC1` [Example 10]: the figures for the IC50 at recombinant human MMP-1 (Inhibition Table A), with TNFα and at recombinant human MMP-13 (setting [3]) were 1600 nM, over 50 µM and 0.4 nM, respectively.
As for `C#CCN1CCC(C(=O)NO)(S(=O)(=O)c2ccc(SC3CCCCC3)cc2)CC1` [Example 13], the IC50 on recombinant human MMP-2 (setting [2]) is 0.4 nM; in the data set with TNFα it was over 50 µM; at recombinant human MMP-13 (setting [3]), 0.6 nM.
`O=C(NO)C1(S(=O)(=O)c2ccc(Sc3ccc(F)cc3)cc2)CCN(C2CC2)CC1` [Example 27]: the IC50 is over 10000 nM at recombinant human MMP-1 (Inhibition Table A); 0.4 nM on recombinant human MMP-2 (setting [2]); over 80 µM in the data set on TNFα; 4 nM on recombinant human MMP-9 (Inhibition Table A); 0.45 nM on recombinant human MMP-13 (setting [3]).
`COCCN1CCC(C(=O)NO)(S(=O)(=O)c2ccc(Sc3ccccc3)cc2)CC1` [Example 35, N—hydroxy-1-(2-methoxyethyl)-4-[[4-(phenylthio)phenyl]-sulfonyl]-4-piperidinecarboxamide, Monohydrochloride]: the IC50 on recombinant human MMP-1 (Inhibition Table B) is over 10000 nM; on recombinant human MMP-2 (setting [4]), 0.3 nM; in the data set on TNFα it was over 80 µM; at recombinant human MMP-9 (Inhibition Table B), 3 nM; at recombinant human MMP-13 (setting [5]) it was 0.5 nM.
In the case of `O=C(NO)C1(S(=O)(=O)c2ccc(Oc3ccc(OC(F)(F)F)cc3)cc2)CCOCC1` [Example 69], the IC50 with TNFα was over 80 µM. In addition, in data set [1] (rat, in vivo), the “AUC (0-∞)” value is 63.78 and the “Blood Level @ 3 min” value worked out at 44000 ng/mL. The “Blood Level @ 3 min” value in data set [1] (rat, in vivo, iv, 20 mg/kg) came to 44000 ng/mL.
As to `O=C(NO)C1(S(=O)(=O)c2ccc(Sc3ccc(OC(F)(F)F)cc3)cc2)CCOCC1` [Example 73, tetrahydro-N-hydroxy-4-[[4-[4-(trifluoromethoxy)phenylthio]-phenyl]-sulfonyl]-2H-pyran-4-carboxamide], the IC50 on recombinant human MMP-1 (Inhibition Table B) was 1140 nM; on recombinant human MMP-2 (MMP-2 IC50 (nM)), under 0.1 nM; on recombinant human MMP-9 (Inhibition Table B), 0.2 nM; at recombinant human MMP-13, under 0.1 nM. Also, the “Blood Level @ 6 hr” value in data set [1] (rat, in vivo, po, 20 mg/kg) was found to be 372 ng/mL.
With `Cl.O=C(NO)C1(S(=O)(=O)c2ccc(Oc3ccc(Cl)cc3)cc2)CCNCC1` [Example 93, 4-[[4-(4-chlorophenoxy)-phenyl]sulfonyl]-N-hydroxy-4-piperidinecarboxamide, Monohydrochloride], the IC50 was 8000 nM at recombinant human MMP-1 (Inhibition Table B), 0.4 nM on recombinant human MMP-2 (setting [4]), 3.5 nM on recombinant human MMP-9 (Inhibition Table B) and 0.7 nM on recombinant human MMP-13 (setting [5]). In data set [1], the “t½ Hour” value is 1.81 h.
With `O=C(NO)C1(S(=O)(=O)c2ccc(Sc3ccccc3)cc2)CCOCC1` [Example 95, Tetrahydro-N-hydroxy-4-[[4-(phenylthio)phenyl]sulfonyl]-2H-pyran-4-carboxamide], the IC50 at recombinant human MMP-1 (Inhibition Table B) was over 10000 nM; on recombinant human MMP-2 (setting [4]), 1 nM; in the data set on TNFα, over 50 µM; at recombinant human MMP-9 (Inhibition Table B), 3.6 nM; at recombinant human MMP-13 (setting [5]) it was 0.5 nM. Moreover, the “t½ Hour” value in data set [1] worked out at 1.06 h.
Turning to `O=C(NO)C1(S(=O)(=O)c2ccc(Sc3ccc(F)cc3)cc2)CCOCC1` [Example 103, 4-[[4-[(4-fluorophenyl)-thio]phenyl]sulfonyl]tetrahydro-N-hydroxy-2H-pyran-4-carboxamide], the IC50 is over 10000 nM on recombinant human MMP-1 (Inhibition Table B), 0.8 nM at recombinant human MMP-2 (setting [4]), 10 nM on recombinant human MMP-9 (Inhibition Table B) and 0.7 nM at recombinant human MMP-13 (setting [5]). For the same compound, the “t½ Hour” value in data set [1] was found to be 1.10 h.
The corresponding values for `Cl.O=C(NO)C1(S(=O)(=O)c2ccc(Sc3ccncc3)cc2)CCOCC1` [Example 104, Tetrahydro-N-hydroxy-4-[[4-(4-pyridinylthio)phenyl]sulfonyl]-2H-pyran-4-carboxamide, Monohydrochloride] are over 10000 nM, 1.5 nM, 42.8 nM, 0.65 nM and 0.66 h.
Consider `O=C(NO)C1(S(=O)(=O)c2ccc(Oc3ccccc3)cc2)CCSCC1` [Example 109], for which the IC50 was 500 nM on recombinant human MMP-1 (Inhibition Table B), 0.1 nM on recombinant human MMP-2 (setting [4]), 0.7 nM at recombinant human MMP-9 (Inhibition Table B) and 0.3 nM on recombinant human MMP-13 (setting [5]). The “t½ Hour” value in data set [1] was determined as 1.12 h.
The corresponding values for `O=C(O)CNc1ccc(Oc2ccc(S(=O)(=O)C3(C(=O)NO)CCSCC3)cc2)cc1` [Example 117, tetrahydro-N-hydroxy-4-[[4-[4-hydroxyphenyl Glycine)]phenyl] Sulfonyl 2H-thiopyran-4-carboxamide] are 3700 nM, 0.6 nM, 45.4 nM, 4.8 nM and 0.78 h.
Take `NCC(=O)Nc1ccc(Sc2ccc(S(=O)(=O)C3(C(=O)NO)CCSCC3)cc2)cc1` [Example 118, tetrahydro-N-hydroxy-4-[[4-[4-hydroxyphenylglycine))phenyl] Sulfonyl 2H-thiopyran-4-carboxamide]: the IC50 at recombinant human MMP-1 (Inhibition Table B) stood at 2850 nM; at recombinant human MMP-2 (setting [4]), 0.3 nM; on recombinant human MMP-9 (Inhibition Table B), 50 nM; on recombinant human MMP-13 (setting [5]) it was 0.8 nM. Also, the “t½ Hour” value in data set [1] is 1.85 h.
On to `CC(C)c1ccc(Oc2ccc(S(=O)(=O)C3(C(=O)NO)CCOCC3)cc2)cc1` [Example 125], for which the IC50 is over 10000 nM at recombinant human MMP-1 (Inhibition Table B), 0.4 nM on recombinant human MMP-2 (setting [4]), 7 nM on recombinant human MMP-9 (Inhibition Table B) and 0.5 nM on recombinant human MMP-13 (setting [5]). Also, in data set [1], the “t½ Hour” value worked out at 0.73 h.
Regarding `O=C(NO)C1(S(=O)(=O)c2ccc(Oc3ccc(C(F)(F)F)cc3)cc2)CCOCC1` [Example 379], the 50% inhibitory concentration (IC50) in the data set with TNFα is 80 µM. Besides, the “t½ Hour” value in data set [1] came out at 1.74 h.
